This note sets out measurements from patent US12685735B2 (Foghorn Therapeutics Inc., priority 2020, dated 2026).

Broadly, the IC50 is the midpoint of a concentration-inhibition curve.

The target of one experiment is BRM (Homo sapiens, UniProt P51531). In words: ATPase catalytic activity assay of BRM (ADP-Glo). In kind it is biochemical. The following applies: for IC50: read-out: BRM IC50 (μM)*. Put shortly:
(§1)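 In vitro biochemical ATPase assay; product ADP detected after removing leftover ATP and reconverting ADP to ATP for a luciferase signal.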
On the technique in general: ADP-Glo first removes unused ATP, then detects ADP through luciferase.

A further experiment addresses BRG-1 (Homo sapiens, UniProt P51532). Put plainly: ATPase catalytic activity assay of BRG-1 (ADP-Glo). In kind it is biochemical. The conditions noted are these: ATPase catalytic activity, ADP-Glo; for IC50: read-out: BRG1 IC50 (μM)*; for Emax: read-out: BRG1 Max % Inhibition. The gist of the method:
as §1

Molecules are shown by their SMILES. Read-outs that look alike come from different tables or passages of the source.

Sequence of BRG-1 (P51532 whole entry): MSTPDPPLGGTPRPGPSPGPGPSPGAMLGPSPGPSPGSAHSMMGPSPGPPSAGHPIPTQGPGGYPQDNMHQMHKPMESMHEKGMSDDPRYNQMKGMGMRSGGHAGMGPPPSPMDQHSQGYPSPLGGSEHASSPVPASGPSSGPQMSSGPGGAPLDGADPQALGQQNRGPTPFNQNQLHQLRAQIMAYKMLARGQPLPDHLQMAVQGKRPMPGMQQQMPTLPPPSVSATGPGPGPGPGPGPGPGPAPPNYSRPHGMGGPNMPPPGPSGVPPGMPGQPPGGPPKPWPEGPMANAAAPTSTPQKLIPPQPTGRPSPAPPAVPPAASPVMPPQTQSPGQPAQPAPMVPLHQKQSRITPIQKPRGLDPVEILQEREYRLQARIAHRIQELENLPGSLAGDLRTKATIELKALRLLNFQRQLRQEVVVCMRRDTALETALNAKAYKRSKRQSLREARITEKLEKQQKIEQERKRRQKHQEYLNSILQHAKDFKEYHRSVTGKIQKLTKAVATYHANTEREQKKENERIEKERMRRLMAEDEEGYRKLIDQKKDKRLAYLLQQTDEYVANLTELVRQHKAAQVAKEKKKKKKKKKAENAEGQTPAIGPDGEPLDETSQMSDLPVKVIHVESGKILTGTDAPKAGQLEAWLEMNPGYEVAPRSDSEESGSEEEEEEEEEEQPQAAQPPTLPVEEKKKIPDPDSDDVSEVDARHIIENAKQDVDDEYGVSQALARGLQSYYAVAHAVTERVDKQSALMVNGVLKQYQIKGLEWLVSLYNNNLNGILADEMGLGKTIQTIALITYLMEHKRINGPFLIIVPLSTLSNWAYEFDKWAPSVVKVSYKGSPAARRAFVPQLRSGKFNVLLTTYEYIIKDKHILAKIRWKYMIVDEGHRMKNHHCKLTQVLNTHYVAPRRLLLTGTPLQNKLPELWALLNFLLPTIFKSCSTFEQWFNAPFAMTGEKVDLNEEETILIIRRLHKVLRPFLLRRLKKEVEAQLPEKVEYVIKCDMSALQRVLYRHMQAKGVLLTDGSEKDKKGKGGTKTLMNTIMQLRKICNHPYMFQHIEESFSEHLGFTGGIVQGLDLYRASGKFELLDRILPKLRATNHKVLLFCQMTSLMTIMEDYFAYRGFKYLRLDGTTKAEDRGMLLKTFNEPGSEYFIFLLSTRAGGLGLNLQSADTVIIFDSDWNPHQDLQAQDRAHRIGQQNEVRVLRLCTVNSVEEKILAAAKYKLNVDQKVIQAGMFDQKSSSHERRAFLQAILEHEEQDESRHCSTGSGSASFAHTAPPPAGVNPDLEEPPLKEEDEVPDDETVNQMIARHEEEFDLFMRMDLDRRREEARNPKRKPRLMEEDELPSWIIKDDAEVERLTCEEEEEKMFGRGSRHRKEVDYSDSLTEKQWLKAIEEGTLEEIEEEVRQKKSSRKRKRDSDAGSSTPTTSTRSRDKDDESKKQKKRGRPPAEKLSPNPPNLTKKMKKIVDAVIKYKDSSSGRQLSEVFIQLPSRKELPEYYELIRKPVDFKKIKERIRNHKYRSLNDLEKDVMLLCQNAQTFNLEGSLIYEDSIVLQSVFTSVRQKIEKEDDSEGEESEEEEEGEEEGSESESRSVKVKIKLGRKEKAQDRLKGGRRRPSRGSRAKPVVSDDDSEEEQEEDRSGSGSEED
Sequence of BRM (P51531 whole entry): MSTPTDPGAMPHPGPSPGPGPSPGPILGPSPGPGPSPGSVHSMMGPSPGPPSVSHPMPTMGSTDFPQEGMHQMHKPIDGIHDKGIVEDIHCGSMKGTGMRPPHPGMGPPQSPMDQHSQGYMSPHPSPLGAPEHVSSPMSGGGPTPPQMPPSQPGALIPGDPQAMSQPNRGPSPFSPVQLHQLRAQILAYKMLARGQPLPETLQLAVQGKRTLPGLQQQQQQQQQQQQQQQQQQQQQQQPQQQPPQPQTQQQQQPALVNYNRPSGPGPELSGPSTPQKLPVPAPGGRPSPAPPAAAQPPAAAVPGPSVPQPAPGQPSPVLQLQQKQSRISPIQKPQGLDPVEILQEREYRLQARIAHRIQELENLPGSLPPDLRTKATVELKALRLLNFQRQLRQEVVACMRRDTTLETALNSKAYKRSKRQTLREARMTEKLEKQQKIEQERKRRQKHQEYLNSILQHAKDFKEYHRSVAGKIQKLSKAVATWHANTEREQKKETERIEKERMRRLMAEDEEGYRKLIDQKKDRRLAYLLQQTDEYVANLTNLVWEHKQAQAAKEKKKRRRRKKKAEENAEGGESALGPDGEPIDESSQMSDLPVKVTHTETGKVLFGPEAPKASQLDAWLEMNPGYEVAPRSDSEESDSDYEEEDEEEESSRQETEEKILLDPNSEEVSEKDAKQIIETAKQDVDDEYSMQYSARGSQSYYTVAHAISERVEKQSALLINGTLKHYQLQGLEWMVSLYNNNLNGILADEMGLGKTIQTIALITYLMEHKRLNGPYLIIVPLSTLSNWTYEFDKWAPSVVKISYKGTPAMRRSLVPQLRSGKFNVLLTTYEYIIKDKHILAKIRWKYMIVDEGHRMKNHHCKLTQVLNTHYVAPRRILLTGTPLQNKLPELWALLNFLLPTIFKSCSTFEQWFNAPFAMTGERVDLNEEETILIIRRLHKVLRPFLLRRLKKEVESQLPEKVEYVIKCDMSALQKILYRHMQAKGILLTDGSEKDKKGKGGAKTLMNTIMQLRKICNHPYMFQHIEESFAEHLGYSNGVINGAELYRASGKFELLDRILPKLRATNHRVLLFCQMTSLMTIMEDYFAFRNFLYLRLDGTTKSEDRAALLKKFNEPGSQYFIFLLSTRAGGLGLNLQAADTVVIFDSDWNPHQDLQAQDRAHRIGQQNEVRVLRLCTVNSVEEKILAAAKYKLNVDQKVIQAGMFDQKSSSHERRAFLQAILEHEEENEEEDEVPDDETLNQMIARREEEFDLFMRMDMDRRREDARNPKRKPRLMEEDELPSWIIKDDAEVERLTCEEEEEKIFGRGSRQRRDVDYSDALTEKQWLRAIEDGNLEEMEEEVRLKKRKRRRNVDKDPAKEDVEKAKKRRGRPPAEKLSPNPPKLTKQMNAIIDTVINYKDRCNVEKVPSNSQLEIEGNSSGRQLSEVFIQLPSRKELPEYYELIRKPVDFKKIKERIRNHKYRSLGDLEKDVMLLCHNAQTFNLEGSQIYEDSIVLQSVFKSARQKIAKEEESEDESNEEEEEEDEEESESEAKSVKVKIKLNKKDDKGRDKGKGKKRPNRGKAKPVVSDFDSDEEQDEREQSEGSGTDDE

As for `C[C@@H]1CN(c2cccc(-c3csc(NC(=O)CNC(=O)c4ccc(F)c(C(C)(C)CO)c4)n3)c2)C[C@H](C)O1` [Compound 200, N-(2-((4-(3-((cis)-2,6-dimethylmorpholino)phenyl)thiazol-2-yl)amino)-2-oxoethyl)-4-fluoro-3-(1-hydroxy-2-methylpropan-2-yl)benzamide], at BRM, the “BRM Max % Inhibition” value is >95% and the 50% inhibitory concentration (IC50) was < 0.1 µM. Further, on BRG-1, the IC50 fell in the range of 0.1 to 1 µM and the Emax was > 80%.
The like results for `CC1(C(N)=O)CCc2ccc(C(=O)NCC(=O)Nc3nc(-c4cccc(-c5ccncc5)c4)cs3)cc21` (centres unmarked) [Compound 96] were, in that order, >95%, 0.1 to 1 µM, 1 to 5 µM and > 90%.
Regarding `C[C@@H]1CN(c2cccc(-c3csc(NC(=O)CNC(=O)c4ccc5c(c4)[C@@](C)(C#N)COC5)n3)c2)C[C@H](C)O1` [Compound 171, (S)-4-cyano-N-(2-((4-(3-((cis)-2,6-dimethylmorpholino)phenyl)thiazol-2-yl)amino)-2-oxoethyl)-4-methylisochroman-6-carboxamide], at BRM, the “BRM Max % Inhibition” value was >80% and the IC50 is 0.1 to 1 µM. In addition, at BRG-1, the half-inhibitory concentration (IC50) was 1 to 5 µM and the Emax is > 70%.
Turning to `C[C@@H]1CN(c2cccc(-c3csc(NC(=O)CNC(=O)c4ccc5c(c4)[C@H]([C@H](C)O)CC5)n3)n2)C[C@H](C)O1` [Compound 141, (3R)-N-[2-[[4-[6-[(cis)-2,6-dimethylmorpholin-4-yl]-2-pyridyl]thiazol-2-yl]amino]-2-oxo-ethyl]-3-[(1S)-1-hydroxyethyl]indane-5-carboxamide], at BRM, the “BRM Max % Inhibition” value is >80% and the half-inhibitory concentration (IC50) lay within 0.1 to 1 µM. Also, at BRG-1, the concentration for half-maximal inhibition (IC50) is > 5 µM and the Emax is > 60%.
Turning to `Cc1cc(-c2cccc(-c3csc(NC(=O)CNC(=O)c4cccc(S(=O)(=O)C(C)C)c4)n3)n2)ncn1` [Compound 117, 3-isopropylsulfonyl-N-[2-[[4-[6-(6-methylpyrimidin-4-yl)-2-pyridyl]thiazol-2-yl]amino]-2-oxo-ethyl]benzamide], at BRM, the “BRM Max % Inhibition” value was >95% and the half-maximal inhibitory concentration (IC50) is < 0.1 µM. In addition, on BRG-1, the concentration for half-maximal inhibition (IC50) was in the range of 0.1 to 1 µM and the Emax was > 80%.
With `COc1cccc(-c2csc(NC(=O)CNC(=O)c3cc(F)c4c(c3)[C@](C)(C#N)COC4)n2)c1` [Compound 270, (R)-4-cyano-8-fluoro-N-(2-((4-(3-methoxyphenyl)thiazol-2-yl)amino)-2-oxoethyl)-4-methylisochromane-6-carboxamide], at BRM, the “BRM Max % Inhibition” value was >95% and the IC50 was < 0.1 µM. For the same compound, on BRG-1, the concentration for half-maximal inhibition (IC50) fell in the range of 0.1 to 1 µM and the Emax was > 95%.
For the compound `COc1cccc(-c2csc(NC(=O)CNC(=O)c3cc(OC)c4c(c3)[C@](C)(C#N)COC4)n2)c1` [Compound 335, (R)-4-cyano-8-methoxy-N-(2-((4-(3-methoxyphenyl)thiazol-2-yl)amino)-2-oxoethyl)-4-methylisochromane-6-carboxamide], on BRM, the “BRM Max % Inhibition” value is given as >90% and the IC50 fell in the range of 0.1 to 1 µM. Also, at BRG-1, the half-inhibitory concentration (IC50) is > 5 µM and the Emax is > 90%.
The like results for `CSCC[C@H](NC(=O)c1cccc(C(C)(C)CN)c1)C(=O)Nc1nc(-c2cccc(-c3ccncc3)c2)cs1` [Compound 48, (S)-3-(1-amino-2-methylpropan-2-yl)-N-(4-(methylthio)-1-oxo-1-((4-(3-(pyridin-4-yl)phenyl)thiazol-2-yl)amino)butan-2-yl)benzamide] were, in that order, >95%, 0.1 to 1 µM, 0.1 to 1 µM and > 80%.
With `CC(C(F)(F)F)S(=O)(=O)c1cccc(C(=O)NCC(=O)Nc2nc(-c3cccc(-c4ccncc4)c3)cs2)c1` (centres unmarked) [Compound 112], at BRM, the “BRM Max % Inhibition” value is reported as >80% and the half-maximal inhibitory concentration (IC50) fell in the range of 0.1 to 1 µM. Further, at BRG-1, the half-inhibitory concentration (IC50) fell in the range of 0.1 to 1 µM and the Emax was > 50%.
For `COc1cc(F)cc(-c2csc(NC(=O)C(C)NC(=O)c3ccc4c(c3)[C@](C)(F)COC4)n2)c1` (stereo in doubt) [Compound 334, (S)-4-fluoro-N-((R)-1-((4-(3-fluoro-5-methoxyphenyl)thiazol-2-yl)amino)-1-oxopropan-2-yl)-4-methylisochromane-6-carboxamide], at BRM, the “BRM Max % Inhibition” value is recorded as >95% and the IC50 was < 0.1 µM. At BRG-1, the 50% inhibitory concentration (IC50) is 0.1 to 1 µM and the Emax is > 95%.
In the case of `C[C@@H]1CN(c2cc(-c3csc(NC(=O)CNC(=O)c4ccc5c(c4)[C@](C)(C#N)COC5)n3)ccn2)C[C@H](C)O1` [Compound 347, (R)-4-cyano-N-(2-((4-(2-((cis)-2,6-dimethylmorpholino)pyridin-4-yl)thiazol-2-yl)amino)-2-oxoethyl)-4-methylisochromane-6-carboxamide], at BRM, the “BRM Max % Inhibition” value is >95% and the half-inhibitory concentration (IC50) was < 0.1 µM. Also, at BRG-1, the half-inhibitory concentration (IC50) was < 0.1 µM and the Emax was > 95%.
Regarding `Cc1cc(-c2cccc(-c3csc(NC(=O)CNC(=O)c4ccc(Cl)c(C(C)(C)CO)c4)n3)n2)ncn1` [Compound 216, 4-chloro-3-(2-hydroxy-1,1-dimethyl-ethyl)-N-[2-[[4-[6-(6-methylpyrimidin-4-yl)-2-pyridyl]thiazol-2-yl]amino]-2-oxo-ethyl]benzamide], on BRM, the “BRM Max % Inhibition” value is >95% and the IC50 is < 0.1 µM. On BRG-1, the 50% inhibitory concentration (IC50) fell in the range of 0.1 to 1 µM and the Emax is > 95%.
`CC1(C#N)CCc2ccc(C(=O)NCC(=O)Nc3nc(-c4cccc(-c5ccncc5)c4)cs3)cc21` (single isomer, unassigned) [Compound 88]: at BRM, the “BRM Max % Inhibition” value is given as >50% and the IC50 fell in the range of 0.1 to 1 µM. In addition, on BRG-1, the “BRG1 Max % Inhibition” value was >30% and the 50% inhibitory concentration (IC50) was > 5 µM.
As to `CC(C)S(=O)(=O)c1cccc(C(=O)NCC(=O)Nc2nc(-c3cccc(-c4ccnc(CO)c4)c3)cs2)c1` [Compound 26, N-(2-((4-(3-(2-(hydroxymethyl)pyridin-4-yl)phenyl)thiazol-2-yl)amino)-2-oxoethyl)-3-(isopropylsulfonyl)benzamide], at BRM, the “BRM Max % Inhibition” value is reported as >90% and the half-inhibitory concentration (IC50) was < 0.1 µM. For the same compound, the IC50 on BRG-1 lay in the range of 0.1 to 1 µM.
In the case of `C[C@@H]1CN(c2cccc(-c3csc(NC(=O)CNC(=O)c4cccc(C5(F)CCOC5)c4)n3)n2)C[C@H](C)O1` (stereo in doubt) [Compound 441, N-(2-((4-(6-((cis)-2,6-dimethylmorpholino)pyridin-2-yl)thiazol-2-yl)amino)-2-oxoethyl)-3-((R)-3-fluorotetrahydrofuran-3-yl)benzamide], on BRM (30 nM BRM, 400 μM ATP), the “BRM Max % Inhibition” value is given as >90% and the concentration for half-maximal inhibition (IC50) lay in the range of 0.1 to 1 µM. At BRG-1 (30 nM BRG-1, 400 μM ATP), the 50% inhibitory concentration (IC50) was > 5 µM and the Emax is > 90%.
The matching figures for `C[C@@H]1CN(c2cccc(-c3csc(NC(=O)[C@H](C)NC(=O)c4ccnc(C(C)(C)C)c4)n3)c2)C[C@H](C)O1` [Compound 435, 2-(tert-butyl)-N-((S)-1-((4-(3-((cis)-2,6-dimethylmorpholino)phenyl)thiazol-2-yl)amino)-1-oxopropan-2-yl)isonicotinamide]: >95%, 0.1 to 1 µM, 1 to 5 µM and > 95%.
For the compound `CSCC[C@H](NC(=O)c1ccc2c(c1)C(C)(O)C(=O)N2)C(=O)Nc1nc(-c2ccccc2)cs1` (stereo partly drawn) [Compound 85, 3-hydroxy-3-methyl-N—((S)-4-(methylthio)-1-oxo-1-((4-phenylthiazol-2-yl)amino)butan-2-yl)-2-oxoindoline-5-carboxamide], on BRM, the “BRM Max % Inhibition” value was >80% and the 50% inhibitory concentration (IC50) is > 5 µM. Also, at BRG-1, the half-maximal inhibitory concentration (IC50) is > 5 µM and the Emax is > 60%.
For `CC1OCCc2cc(C(=O)NCC(=O)Nc3nc(-c4cccc(N5C[C@@H](C)O[C@@H](C)C5)n4)cs3)ccc21` (stereo partly drawn) [Compound 271, N-(2-((4-(6-((cis)-2,6-dimethylmorpholino)pyridin-2-yl)thiazol-2-yl)amino)-2-oxoethyl)-1-methylisochromane-6-carboxamide], on BRM, the “BRM Max % Inhibition” value was >85% and the IC50 is 0.1 to 1 µM. Moreover, on BRG-1, the IC50 lay in the range of 1 to 5 µM and the Emax was > 85%.
In the case of `C[C@@]1(C#N)COCc2ccc(C(=O)NCC(=O)Nc3nc(-c4cc(F)cc(N5CCC5)c4)cs3)cc21` [Compound 364, (R)-N-(2-((4-(3-(azetidin-1-yl)-5-fluorophenyl)thiazol-2-yl)amino)-2-oxoethyl)-4-cyano-4-methylisochromane-6-carboxamide], on BRM, the “BRM Max % Inhibition” value is given as >95% and the IC50 is < 0.1 µM. On BRG-1, the IC50 was < 0.1 µM and the Emax is > 95%.
As to `CN1CCOc2ccc(-c3csc(NC(=O)CNC(=O)c4ccc5c(c4)[C@@](C)(CO)CC5)n3)cc21` [Compound 174, (S)-3-(hydroxymethyl)-3-methyl-N-(2-((4-(4-methyl-3,4-dihydro-2H-benzo[b][1,4]oxazin-6-yl)thiazol-2-yl)amino)-2-oxoethyl)-2,3-dihydro-1H-indene-5-carboxamide], at BRM, the “BRM Max % Inhibition” value is reported as >80% and the IC50 lay in the range of 0.1 to 1 µM. Further, on BRG-1, the IC50 lay in the range of 1 to 5 µM and the Emax is > 50%.
With `CN1C[C@](C)(C#N)c2cc(C(=O)NCC(=O)Nc3nc(-c4cc(F)cc(N5CCC5)c4)cs3)ccc21` [Compound 288, (R)-N-(2-((4-(3-(azetidin-1-yl)-5-fluorophenyl)thiazol-2-yl)amino)-2-oxoethyl)-3-cyano-1,3-dimethylindoline-5-carboxamide], on BRM, the “BRM Max % Inhibition” value is reported as >75% and the concentration for half-maximal inhibition (IC50) is 0.1 to 1 µM. Moreover, on BRG-1, the IC50 was > 5 µM and the Emax was > 75%.
